A word on the EC50: it is the concentration at which the effect is half-maximal. What is called CC50 is the concentration giving 50% cytotoxicity. Lower therefore signals greater toxicity to the cells.

The results in this text go back to publication doi:10.1101/2023.09.29.560149v2 (biorxiv, 2024).

Each structure is given as a SMILES string.

The subject of one series is Chikungunya virus CHIKV. The series can be described thus: microbe, parasite or virus in culture. As to conditions: Vero, 24 h, read-out: CHIKV EC50 (µM).
The nature of series [1]: in vitro. The note with it: african green monkey, vero cells.
The subject of the next series is Sindbis virus SINV. The series can be described thus: microbe, parasite or virus in culture. As to conditions: Vero, 24 h, read-out: SINV EC50 (µM).
Series [2] can be described thus: in vitro. As to conditions: hamster, bhk-21 cells.

`C[C@H]1CC[C@]2(NC1)O[C@H]1C[C@H]3[C@@H]4CC[C@H]5C[C@@H](O)CC[C@]5(C)[C@H]4CC[C@]3(C)[C@H]1[C@@H]2C` [Tomatidine]: the results for the EC50 with Chikungunya virus CHIKV and in the series on Sindbis virus SINV were 5.35 µM and 2.47 µM, respectively. For the same compound, the cytotoxic concentration (CC50) at 24 h amounted to 17.2 µM in “in vitro [1]” and 23.8 µM in “in vitro [2]”.
Turning to `O=C1Nc2ccc(Cl)cc2[C@@](C#CC2CC2)(C(F)(F)F)O1` [efavirenz], the half-maximal effective concentration (EC50) in the series with Chikungunya virus CHIKV is 1.33 µM; with Sindbis virus SINV, 0.72 µM. Also, the figures for the CC50 at 24 h in the series “in vitro [1]” and in “in vitro [2]” were 53.6 µM and 40.9 µM, respectively.
